Laboratory results as given in US10695347B2, “Pyrimidine derivative and use thereof” (Hubei Bio-Pharmaceutical Industrial Technological Institute …, priority 2015, dated 2020).

Experiments:
[1] = tested on: ALK-positive NSCLC; details: 88 patients with ALK-positive NSCLCs who had undergone Crizotinib therapy, early clinical trial; cited from earlier work
[2] = target: ALK L1196M (Homo sapiens (Human), UniProt Q9UM73, L1196M); test: Inhibition of ALK L1196M kinase activity (Caliper mobility shift); format: biochemical
Method: (§1) Inhibition of Compound I Against ALK Kinase Activity
(§2) • I. Preparation of 1× kinase buffer and stop buffer
(§3) 1) 1× Kinase Buffer • 50 mM HEPES. pH 7.5 • 0.0015% Brij-35 • 10 mM MgCl2 • 2 mM DTT • 2) stop buffer • 100 mM HEPES, pH 7.5 • 0.015% Brij-35 • 0.2% Coating Reagent #3 • 50 mM EDTA
(§4) 2. Prepare a Compound Solution to be Tested • Step 2.1 Dilute the compound to 50× of the final desired highest inhibitor concentration in reaction by 100% DMSO. Transfer 100 μl of this compound dilution to a well in a 96-well plate. For example, if desired highest inhibitor concentration is 1 μM, then prepare 50 μM of compound DMSO solution in this step.
(§5) Step 2.2 Further dilute said compound dilution by 3-fold in series, thus obtain 10 concentrations.
(§6) Step 2.3 Add 100 μl of 100% DMSO to two empty wells for no compound control and no enzyme control in the same 96-well plate. Mark the plate as source plate.
(§7) Step 2.4 Prepare an intermediate plate
(§8) Transfer 10 μl of each compound from the source plate to a new 96-well plate as the intermediate plate.
(§9) Add 90 μl of 1× kinase buffer to each well of the intermediate plate. Mix the compounds in the intermediate plate for 10 min on a shaker.
(§10) Transfer 5 μl of each well from the 96-well intermediate plate to a 384-well plate in duplicate. For example, A1 of the 96-well plate is transferred to A1 and A2 of the 384-well plate. A2 of the 96-well plate is transferred to A3 and A4 of the 384-well plate, and so on.
(§11) 4.1 Prepare a 2.5× kinase solution
(§12) Add kinase in 1× kinase base buffer, thus obtain the 2.5× kinase solution.
(§13) 4.2 Prepare a 2.5× peptide solution
(§14) 4.3 In each well of the assay plate obtained in step 3, there was 5 μL of the compound in 10% DMSO.
(§15) 4.4 Transfer the 2.5× enzyme solution to the assay plate.
(§16) 4.5 Incubate at room temperature for 10 min.
(§17) 4.6 Transfer the 2.5× peptide solution to the assay plate.
(§18) 4.7 Kinase reaction and stop
(§19) Incubate at 28° C. for 20 min.
(§20) Add 25 μl of stop buffer to stop reaction.
(§21) Conversion rate of the kinase was read via the Caliper.
(§22) 6.1 Copy conversion data from Caliper program.
(§23) 6.2 Convert conversion values to inhibition values with the following formula: Percent inhibition=(max−conversion)/(max−min)*100
(§24) where “max” stands for DMSO control; and “min” stands for low control.
(§25) 6.3 Fit the data in XLfit excel add-in version 4.3.1 and obtain IC50 values according to the following formula: Y=Bottom+(Top−Bottom)/[…].

[3] = tested on: Karpas299 cells; test: Suppression of Karpas299 cell proliferation (CellTiter-Glo); format: cell-based; details: Homo sapiens, KARPAS-299, 72 h; 3 days incubation; read-out: Inhibition activity on Karpas299 cells IC50
Method: (§26) As the amount of ATP can indicate the number of living cells directly, the living cells in culture are able to be quantified by determining the ATP level. In our experiment, we use a living-cell testing kit to quantify the living cells, which utilizes UltraGlow luciferase to generate a stable glow signal in the presence of ATP which is produced by metabolism of living cells, such as respiration. Specifically, a reagent CellTiter-Glo™ was added into cell culture media, and then the luminescent intensity was determined to measure proliferation of cells, as the luminescent intensity is in direct proportion to the ATP level which correlates positively to the number of living cells. The test plate was tested with the Envision (PE).
Cell media: RPMI-1640 medium, fetal calf serum (FCS), antibiotics (Penicillin-Streptomycin)
Assay reagent: Cell Viability Assay Kit CellTiter-Glo
(§27) Others: a 96-well plate, a 384-well plate, DMSO
(§28) Step 3.1 Culturing test cells
Karpas 299 cells were plated into a black 384-well plate, with 2500 cells in 45 μl cell suspension per well. The plate was placed in a carbon dioxide incubator overnight.
(§29) Step 3.2 Preparation of the compounds to be tested
Each compound to be tested was dissolved in DMSO at 10 mM as the stock solution, which was left in a nitrogen-gas tank for storage.
After dilution of 10 μL stock solution (10 mM) into 2.5 mM as a starting working solution, 10 concentrations of the working solutions from 5 μM to 0.25 nM were obtained in duplicate by further dilution in 3-fold series with ECHO.
Step 3.3 Mixing the compound with the test cells
To each well of a new 96-well plate were added 49 μl medium and 1 μl of the compounds to be tested at individual working concentrations (10 concentrations in total). After oscillation,
5 μl of mixture in each well of the 96-well plate was transferred into corresponding wells in the 384-well plate in the step 3.1. The 384-well plate was incubated in the carbon dioxide incubator for 3 days.
To each well of the 384-well plate was added […] reagent Promega CellTiter-Glo. and incubated at room temperature for 10 minutes to stabilize the luminescence signal. The results were read with the PerkinElmer Envision Multi-mode Plate Reader.

[4] = target: ALK (Homo sapiens (Human), UniProt Q9UM73); test: Inhibition of ALK kinase activity (Caliper mobility shift); format: biochemical
Method: as §1, §2, §3, §4, §5, §6, §7, §8, §9, §10, §11, §12, §13, §14, §15, §16, §17, §18, §19, §20, §21, §22, §23, §24, §25

[5] = tested on: Ba/F3 EML4-ALK cells; test: Suppression of Ba/F3 EML4-ALK cell proliferation (CellTiter-Glo); format: cell-based; details: Ba/F3 EML4-ALK, 72 h; 3 days incubation
From the text: Cell media: RPMI-1640 medium, fetal calf serum (FCS), antibiotics (Penicillin-Streptomycin), IL-3, puromycin
Cell line: Ba/F3 EML4-ALK
Assay reagent: Cell Viability Assay Kit Celliter-Glo
as §27
as §26, with “in medium” for “in culture”, “a cell viability assay” for “a living-cell testing”, “was assayed by” for “was tested with”
as §28
Ba/F3 EML4-ALK cells were planted into a 384-well plate, with almost 300 cells per well. The plate was placed in a carbon dioxide incubator overnight.
as §29
10 concentrations of the working solutions were obtained in duplicate by dilution in 3-fold series with BRAVO.
Step 3.3 Mixing the compound to be tested with the test cells
The compounds to be tested at individual working concentrations were transferred into corresponding wells in the 384-well plate in the step 3.1, with 5 μM as the initial working concentration, and then the 384-well plate was incubated in the carbon dioxide incubator for 3 days.
To each well of the 384-well plate was added the reagent Promega CellTiter-Glo, and incubated at room temperature for 10 minutes to stabilize the luminescence signal. The results were read by the PerkinElmer Envision Multi-mode Plate Reader.

ALK L1196M, sequence (Q9UM73 19-1620 L1196M): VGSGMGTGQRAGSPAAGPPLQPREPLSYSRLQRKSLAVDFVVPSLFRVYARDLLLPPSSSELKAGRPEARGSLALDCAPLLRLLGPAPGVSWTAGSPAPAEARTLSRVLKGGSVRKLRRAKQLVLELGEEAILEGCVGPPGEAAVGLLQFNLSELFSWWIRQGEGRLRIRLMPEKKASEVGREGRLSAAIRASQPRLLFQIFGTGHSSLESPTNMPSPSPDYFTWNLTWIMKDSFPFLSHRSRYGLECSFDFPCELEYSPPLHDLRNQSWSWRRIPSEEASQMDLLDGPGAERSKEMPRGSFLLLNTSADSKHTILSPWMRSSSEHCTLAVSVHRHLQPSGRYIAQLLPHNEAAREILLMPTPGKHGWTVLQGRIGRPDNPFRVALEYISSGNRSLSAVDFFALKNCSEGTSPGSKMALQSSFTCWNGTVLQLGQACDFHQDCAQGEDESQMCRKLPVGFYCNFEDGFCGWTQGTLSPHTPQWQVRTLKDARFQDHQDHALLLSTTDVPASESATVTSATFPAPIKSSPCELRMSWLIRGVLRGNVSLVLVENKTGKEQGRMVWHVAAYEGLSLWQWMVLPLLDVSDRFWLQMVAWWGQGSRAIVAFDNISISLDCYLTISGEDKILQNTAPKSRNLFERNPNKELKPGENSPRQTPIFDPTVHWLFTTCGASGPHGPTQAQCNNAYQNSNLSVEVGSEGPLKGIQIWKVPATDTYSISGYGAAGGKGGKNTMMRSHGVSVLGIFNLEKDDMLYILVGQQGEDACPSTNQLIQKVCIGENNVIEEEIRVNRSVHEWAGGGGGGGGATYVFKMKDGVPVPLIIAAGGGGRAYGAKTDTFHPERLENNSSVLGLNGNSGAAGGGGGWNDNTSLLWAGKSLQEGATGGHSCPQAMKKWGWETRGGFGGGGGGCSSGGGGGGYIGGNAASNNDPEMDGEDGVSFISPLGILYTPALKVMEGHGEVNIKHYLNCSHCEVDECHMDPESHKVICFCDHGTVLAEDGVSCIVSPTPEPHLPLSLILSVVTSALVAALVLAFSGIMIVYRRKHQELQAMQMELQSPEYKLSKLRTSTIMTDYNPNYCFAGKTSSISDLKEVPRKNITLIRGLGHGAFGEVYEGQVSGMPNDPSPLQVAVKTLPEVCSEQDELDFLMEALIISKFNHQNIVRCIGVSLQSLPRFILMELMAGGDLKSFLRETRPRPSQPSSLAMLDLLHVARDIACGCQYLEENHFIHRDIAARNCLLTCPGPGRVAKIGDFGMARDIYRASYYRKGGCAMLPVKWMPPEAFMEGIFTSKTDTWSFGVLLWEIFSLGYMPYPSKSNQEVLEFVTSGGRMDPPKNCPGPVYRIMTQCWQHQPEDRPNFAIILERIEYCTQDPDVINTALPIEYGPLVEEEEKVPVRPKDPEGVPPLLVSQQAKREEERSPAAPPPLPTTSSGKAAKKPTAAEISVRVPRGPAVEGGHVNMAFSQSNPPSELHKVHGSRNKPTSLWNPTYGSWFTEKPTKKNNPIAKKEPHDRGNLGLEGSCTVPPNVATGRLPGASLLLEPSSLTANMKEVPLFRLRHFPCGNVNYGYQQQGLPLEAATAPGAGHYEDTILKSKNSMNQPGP
ALK, sequence (Q9UM73 19-1620): as the sequence (Q9UM73 19-1620 L1196M) above, with M1178L counted along it

| IC50 [2] [nM] | IC50 [3] [nM] | IC50 [4] [nM] | IC50 [5] [nM] | SMILES | response rate [1] [%] |
| --- | --- | --- | --- | --- | --- |
| – | – | – | – | Cc1cc(Nc2ncc(Cl)c(Nc3ccccc3S(=O)(=O)C(C)C)n2)c(OC(C)C)cc1C1CCNCC1 [LDK378, Ceritinib] | 80 |
| < 1 | < 50 | < 1 | 20 to 100 | COc1cc(N2CCC(N(C)C)CC2)c(C)cc1Nc1ncc(Cl)c(Nc2cccnc2S(=O)(=O)C(C)C)n1 [Compound I-98, 5-chloro-N^2-(4-(4-(dimethylamino)piperidin-1-yl)-2-methoxy-5-methylphenyl)-N^4-(2-(isopropylsulfonyl)pyridin-3-yl) pyrimidine-2,4-diamine] | – |
